This note sets out measurements from ChEMBL document CHEMBL1201862, “PubChem BioAssay data set” (2004).

Among the test systems are ACHN; CAKI-1; HCT-116; HCT-15; IGROV-1; LOX IMVI; MCF7; MDA-MB-231; MDA-MB-435; MDA-N; NCI-H226; NCI-H460; NCI-H522; PC-3; SK-MEL-28; SK-MEL-2; SN12C; SNB-19; TK-10; U-251.
Experiment in all cases: inhibition of tumour cell growth, NCI panel, 48 h

The structures appear in SMILES notation.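 Exposure lasted 48 hours, with cells grown in 96-well plates and compounds tested at five concentrations. GI50 marks 50% less growth.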 The source made the active and inactive calls. Cut-off read from the data, not from the text of the source: active = GI50 up to about 1.1 µM and inactive = higher.

Consider `N=C(N)NNC(=O)C(=O)O`, for which the GI50 is > 100 µM (inactive) in the test on ACHN; > 100 µM (inactive) in the test with CAKI-1; > 100 µM (inactive) in the test on HCT-116; over 100 µM in the test on HCT-15; > 100 µM (inactive) in the test on IGROV-1; > 100 µM (inactive) in the test on LOX IMVI. Besides, the GI50 in the test on MCF7, with MDA-MB-231, in the test on MDA-MB-435, with MDA-N, with NCI-H226 and in the test on NCI-H460 was > 100 µM (inactive) in each case. Besides, the GI50 with NCI-H522, in the test on PC-3, in the test with SK-MEL-28, in the test on SK-MEL-2, with SN12C and with SNB-19 was > 100 µM (inactive) each time. The GI50 in the test on TK-10 and in the test with U-251 was > 100 µM (inactive) in each case.

Regarding `COc1cc(OC)c2c(O)c3c(cc2c1)CC(C)(C)CC3=O`, the GI50 in the test on ACHN is > 100 µM (inactive); in the test with CAKI-1, > 100 µM (inactive); in the test on HCT-116 it was > 100 µM (inactive); with HCT-15 it was over 100 µM; with IGROV-1 it was > 100 µM (inactive); in the test with LOX IMVI it was > 100 µM (inactive). The GI50 was > 100 µM (inactive) in the test with MCF7; > 100 µM (inactive) in the test with MDA-MB-231; 19.4 µM (inactive) with MDA-MB-435; > 64 µM (inactive) in the test with MDA-N; > 100 µM (inactive) with NCI-H226; > 100 µM (inactive) with NCI-H460. Also, the GI50 is > 64.3 µM (inactive) with NCI-H522; > 100 µM (inactive) in the test with PC-3; 60.7 µM (inactive) in the test with SK-MEL-28; > 100 µM (inactive) with SK-MEL-2; > 100 µM (inactive) in the test on SN12C; > 100 µM (inactive) in the test with SNB-19. Moreover, the GI50 was > 100 µM (inactive) in the test with TK-10 and 56.5 µM (inactive) in the test with U-251.

Consider `N/N=C(\c1nc2ccc([N+](=O)[O-])cc2nc1O)C(O)c1ccc(Cl)c(Cl)c1` (stereo not given), for which the GI50 in the test with ACHN was 54.1 µM (inactive); with CAKI-1, > 100 µM (inactive); in the test on HCT-116, 71.3 µM (inactive); in the test with HCT-15, over 100 µM; with IGROV-1, > 100 µM (inactive); in the test with LOX IMVI it was 33.4 µM (inactive). The GI50 in the test on MCF7 is > 100 µM (inactive); in the test on MDA-MB-231 it was > 100 µM (inactive); with MDA-MB-435 it was 71.6 µM (inactive); in the test with MDA-N it was > 100 µM (inactive); in the test with NCI-H226 it was > 100 µM (inactive); with NCI-H460 it was 82.4 µM (inactive). In addition, the GI50 with NCI-H522 was 13.9 µM (inactive); in the test with PC-3 it was > 100 µM (inactive); with SK-MEL-28, > 100 µM (inactive); in the test with SK-MEL-2 it was > 100 µM (inactive); with SN12C, > 100 µM (inactive); in the test with SNB-19, > 100 µM (inactive). Besides, the GI50 with TK-10 and in the test on U-251 was > 100 µM (inactive) each time.

Regarding `CCCC(Sc1nc(N)nc2nc[nH]c12)C(=O)O` (stereo not given), the GI50 is > 100 µM (inactive) in the test on ACHN; 41 µM (inactive) in the test with CAKI-1; 42.1 µM (inactive) with HCT-116; 91.6 µM in the test with HCT-15; > 100 µM (inactive) in the test on IGROV-1; 34.5 µM (inactive) in the test on LOX IMVI. Moreover, the GI50 in the test with MCF7 was 62.4 µM (inactive); in the test on MDA-MB-231, > 100 µM (inactive); in the test with MDA-MB-435, 74.8 µM (inactive); in the test on MDA-N it was 47.5 µM (inactive); in the test on NCI-H226, > 100 µM (inactive); with NCI-H460, 67 µM (inactive). Besides, the GI50 is 49 µM (inactive) in the test with NCI-H522; > 100 µM (inactive) in the test with PC-3; > 100 µM (inactive) in the test on SK-MEL-28; > 100 µM (inactive) in the test with SK-MEL-2; > 100 µM (inactive) in the test with SN12C; > 100 µM (inactive) in the test with SNB-19. The results for the GI50 with TK-10 and in the test with U-251 were 26.6 µM (inactive) and > 100 µM (inactive), respectively.

As for `Nc1nc(Sc2ccc([N+](=O)[O-])cn2)c2nc[nH]c2n1`, the GI50 in the test on ACHN is 12.3 µM (inactive); in the test on CAKI-1, 7.13 µM (inactive); with HCT-116, 3.94 µM (inactive); in the test with HCT-15 it was 9.55 µM; with IGROV-1, 14.5 µM (inactive); in the test with LOX IMVI, 2.52 µM (inactive). The GI50 with MCF7 was 5.89 µM (inactive); in the test on MDA-MB-231, 5.9 µM (inactive); with MDA-MB-435 it was 4.79 µM (inactive); in the test with MDA-N, 3.61 µM (inactive); with NCI-H226, 12.6 µM (inactive); in the test on NCI-H460 it was 4.88 µM (inactive). Besides, the GI50 is 12.3 µM (inactive) in the test with NCI-H522; 14 µM (inactive) with PC-3; 33.8 µM (inactive) in the test with SK-MEL-28; 2.47 µM (inactive) with SK-MEL-2; 4.74 µM (inactive) with SN12C; 23.8 µM (inactive) with SNB-19. The GI50 in the test with TK-10 is 9.08 µM (inactive); with U-251, 15.7 µM (inactive).

On to `C/C(=N\NC(=S)N(C)C)c1ccccn1`, for which the GI50 in the test on ACHN is < 0.0122 µM (active); in the test on CAKI-1, 0.186 µM (active); in the test on HCT-116, < 0.01 µM (active); in the test on HCT-15 it was under 0.01 µM; with IGROV-1, < 0.01 µM (active); in the test with LOX IMVI, < 0.01 µM (active). Further, the GI50 is < 0.01 µM (active) in the test with MCF7; < 0.01 µM (active) in the test on MDA-MB-231; 0.221 µM (active) in the test on MDA-MB-435; 0.305 µM (active) in the test with MDA-N; 0.148 µM (active) in the test with NCI-H226; < 0.0156 µM (active) in the test on NCI-H460. Besides, the GI50 is 0.247 µM (active) with NCI-H522; < 0.01 µM (active) with PC-3; 0.269 µM (active) in the test on SK-MEL-28; 0.139 µM (active) in the test with SK-MEL-2; 0.057 µM (active) with SN12C; 1.47 µM (inactive) in the test on SNB-19. Besides, the GI50 is 0.564 µM (active) in the test with TK-10 and < 0.01 µM (active) in the test with U-251.

Consider `O=C(/C=C/c1ccc(O)c(O)c1)Oc1ccccc1`, for which the GI50 with ACHN is 8.45 µM (inactive); in the test on CAKI-1, 5.85 µM (inactive); in the test with HCT-116, 9.71 µM (inactive); in the test on HCT-15 it was 2.74 µM; with IGROV-1 it was 4.19 µM (inactive); in the test with LOX IMVI, 4.9 µM (inactive). Moreover, the GI50 in the test on MCF7 was 12.2 µM (inactive); in the test on MDA-MB-231, 23.1 µM (inactive); in the test with MDA-MB-435, 14.5 µM (inactive); with MDA-N it was 16.1 µM (inactive); with NCI-H226, 35.1 µM (inactive); in the test with NCI-H460, 19.2 µM (inactive). Besides, the GI50 is 0.304 µM (active) in the test with NCI-H522; 17.1 µM (inactive) with PC-3; 22.5 µM (inactive) in the test on SK-MEL-28; 15.7 µM (inactive) in the test with SK-MEL-2; 16 µM (inactive) in the test with SN12C; 20.4 µM (inactive) with SNB-19. The GI50 was 28.1 µM (inactive) in the test with TK-10 and 12.6 µM (inactive) in the test on U-251.
